Converted amounts (≈) assume the structure as drawn.
Key:
Format in all cases: cell-based
[1] = test system: Bordetella bronchiseptica (SM2-4); assay: Antibacterial activity (IC), broth microplate as in Example 4 (Example 7, Table 42); conditions: 18 h
Experimental: (§1) A suitable amount of a sample was dissolved in dimethylsulfoxide (DMSO), and the resultant solution was diluted with the same amount of sterilized distilled water to prepare a bulk sample of 1,000 µg/ml. Mueller-Hinton broth (product of DIFCO) was dispensed into each well of 96-well microplate. Thereafter, the bulk specimen was added to the first well of a row, and successively diluted (10-fold each time) with sterilized distilled water. Separately, a bacterial cell suspension for the test (Staphylococcus aureus 209-P) which had been cultured in the above-mentioned broth overnight at 37°C was inoculated to each well so that the final inoculation amount of 10^6 CFU/ml was attained. The final concentrations of the samples were 100, 10, and 1 µg/ml.
(§2) The antibacterial action was evaluated by the inhibitory concentration (hereinafter abbreviated as IC) at which propagation of the bacteria cultured at 37°C for 18 hours was inhibited. Inhibition was determined by the turbidity of the medium. The expressions "IC≤100", "≤10", and "≤1" indicate that MIC-equivalent values obtained at the succesive […] dilution of the sample are 100-10 µg/ml, 10-1 µg/ml, and not more than 1 µg/ml, respectively. […] (In the subsequent Examples, the same rule applies correspondingly.) Table 39
In a manner similar to that described in Example 4, antibacterial activity of the invention compound was determined. The bacterium used for the test was Bordetella bronchiseptica (SM2-4).

[2] = test system: Staphylococcus aureus TI-1; assay: Antibacterial activity (IC), broth microplate as in Example 4 (Example 5, Table 40); conditions: TI1, 18 h
Experimental: as §1, §2
In a manner similar to that described in Example 4, antibacterial activity of the invention compound was determined. The bacterium used for the test was Staphylococcus aureus TI-1.

[3] = test system: Staphylococcus aureus 209-P; assay: Antibacterial activity (IC), Mueller-Hinton broth, 96-well microplate (Example 4, Table 39); conditions: 37°C, 18 hours
Experimental: as §1, §2

[4] = test system: methicillin-resistant Staphylococcus aureus (MRSA) isolated from humans; assay: Antibacterial activity (IC), Mueller-Hinton agar containing the sample (Example 8, Table 43); conditions: Staphylococcus aureus, MRSA, 18 h
Experimental: as §2
(§3) A suitable amount of a sample was dissolved in dimethylsulfoxide (DMSO), after which the resulting solution was diluted with the same amount of sterilized distilled water to prepare a bulk sample of 1,000 µg/ml. Separately, a bacterial liquid for the test (methicillin-resistant Staphylococcus aureus (MRSA) isolated from humans) which had been cultured in Mueller-Hinton broth (product of DIFCO) was prepared and inoculated to a Mueller-Hinton agar (product of DIFCO) containing the sample so that the final inoculation amount of 10^6 CFU/ml was achieved. The final concentrations of the samples were 100, 10, and 1 µg/ml.
(§4) After culturing at 37°C for 18 hours, the antibacterial activity was evaluated in terms of IC in a manner similar to that described in Example 4.

[5] = test system: Pasteurella multocida (Kobe-6); assay: Antibacterial activity (IC), broth microplate as in Example 4 (Example 6, Table 41); conditions: 18 h, origin pig
Experimental: as §1, §2
In a manner similar to that described in Example 4, antibacterial activity of the invention compound was determined. The bacterium used for the test was Pasteurella Kobe-6 (origin: pig; Pasteurella multocida).

[6] = test system: Staphylococcus aureus (209-P); assay: Antibacterial activity (IC), agar as in Example 8 (Example 15, Table 48); conditions: 18 h
Method in brief: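 Agar dilution with Mueller-Hinton agar containing sample at final 100, 10 and 1 µg/ml, inoculated to 10^6 CFU/ml. Incubated at 37°C for 18 h, growth inhibition judged by medium turbidity. IC bands at successive 2-fold dilution: 100-10, 10-1, or ≤1 µg/ml.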

[7] = test system: Streptococcus aureus (TI-1); assay: Antibacterial activity (IC), agar as in Example 8 (Example 16, Table 49); conditions: 18 h
Method in brief: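 Broth-grown […] aureus (TI-1) inoculated onto Mueller-Hinton agar containing compound, per the MRSA method; DMSO/water dilutions at final 100, 10 and 1 µg/ml, 10^6 CFU/ml inoculum. After 18 h at 37°C, growth inhibition judged by turbidity; IC reported as bands (100-10, 10-1, ≤1 µg/ml).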

[8] = test system: Pasteurella multocida (Kobe-6); assay: Antibacterial activity (IC), agar as in Example 8 (Example 17, Table 50); conditions: 18 h, origin pig
Method in brief: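 Agar dilution on Mueller-Hinton agar with compound at 100, 10 and 1 µg/ml, inoculated at 10^6 CFU/ml with pig-origin strain Kobe-6. After 18 h at 37 °C, IC scored from turbidity and reported as a band (≤100, ≤10, ≤1 µg/ml).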

[9] = test system: methicillin-resistant Staphylococcus aureus (MRSA) from humans; assay: Antibacterial activity (IC), agar as in Example 8 (Example 19, Table 52); conditions: 18 h
Method in brief: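 MRSA human isolate at 10^6 CFU/ml on Mueller-Hinton agar containing compound at 100, 10 or 1 µg/ml, grown 18 h at 37 °C. IC is the lowest tested level that inhibited growth, binned as ≤100, ≤10 or ≤1 µg/ml.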

Enterococcus from fish = assay: Antibacterial activity (IC), agar as in Example 8, media with 1.5% NaCl, 25°C (Example 20, Tables 53-55); conditions: for MIC: Enterococcus Seriolicida SE94-002
Method in brief: (§5)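 Growth inhibition was scored by turbidity after culture at 25°C, with IC bands set from 2-fold-dilution MIC-equivalents. Samples were tested at final 100, 10 and 1 µg/ml in Mueller-Hinton agar with 1.5% NaCl, seeded with 10^6 CFU/ml of the fish isolates.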

Pasteurella from fish = assay: as above; conditions: for MIC: Pasteurella piscicida KP94-02
Method in brief: as §5

[10] = test system: Bordetella bronchiseptica (SM2-4); assay: Antibacterial activity (IC), agar as in Example 8 (Example 18, Table 51); conditions: 18 h
Experimental: as §2, §3, §4
(§6) In a manner similar to that described in Example 8, antibacterial activity of the invention compound was determined. The bacterium used for the test was Bordetella bronchiseptica (S1) and Bordetella bronchiseptica (SM2-4).

[11] = test system: Bordetella bronchiseptica (S1); assay: as above; conditions: 18 h
Experimental: as §2, §3, §4, §6

[12] = Enterococcus Seriolicida KG86050
[13] = Enterococcus Seriolicida MS89060
[14] = Enterococcus Seriolicida MS89064
[15] = Enterococcus Seriolicida MS89066
[16] = Enterococcus Seriolicida MS89068
[17] = Enterococcus Seriolicida SE94-001
[18] = Enterococcus Seriolicida SE94-003
[19] = Enterococcus Seriolicida SE94-004
[20] = Enterococcus Seriolicida SE94-005

Row | MIC [1] | MIC [2] | MIC [3] | MIC ([4]; MRSA strain 891179, 37°C) | MIC ([4]; MRSA strain 891185, 37°C) | MIC ([4]; MRSA strain 891187, 37°C) | MIC ([4]; MRSA strain 891192, 37°C) | MIC ([4]; MRSA strain 900048, 37°C) | MIC ([4]; MRSA strain 900056, 37°C) | MIC [5] | SMILES | MIC [6] | MIC [7] | MIC [8] | MIC ([9]; MRSA strain 891179) | MIC ([9]; MRSA strain 891185) | MIC ([9]; MRSA strain 891187) | MIC ([9]; MRSA strain 891192) | MIC ([9]; MRSA strain 900048) | MIC ([9]; MRSA strain 900056) | IC (Enterococcus from fish; Enterococcus Seriolicida HI) | also measured
1 | 10 to 100 µg/mL (≈ 18.4 to 184 µM) | ≤ 1 µg/mL | 1 to 10 µg/mL (≈ 1.84 to 18.4 µM) | 1 to 10 µg/mL (≈ 1.84 to 18.4 µM) | 1 to 10 µg/mL (≈ 1.84 to 18.4 µM) | ≤ 1 µg/mL | 1 to 10 µg/mL (≈ 1.84 to 18.4 µM) | ≤ 1 µg/mL | ≤ 1 µg/mL | 10 to 100 µg/mL (≈ 18.4 to 184 µM) | Cc1cc(Oc2ccc(C(F)(F)F)cc2Cl)ccc1OC(C)C(=O)C(C#N)c1ccc(Cl)c(Cl)c1 (stereo not drawn) [compound 46] |  |  |  |  |  |  |  |  |  |  | 
2 | 10 to 100 µg/mL (≈ 18.1 to 181 µM) | ≤ 1 µg/mL | 1 to 10 µg/mL (≈ 1.81 to 18.1 µM) | 1 to 10 µg/mL (≈ 1.81 to 18.1 µM) | 1 to 10 µg/mL (≈ 1.81 to 18.1 µM) | 1 to 10 µg/mL (≈ 1.81 to 18.1 µM) | 1 to 10 µg/mL (≈ 1.81 to 18.1 µM) | 1 to 10 µg/mL (≈ 1.81 to 18.1 µM) | 1 to 10 µg/mL (≈ 1.81 to 18.1 µM) | 10 to 100 µg/mL (≈ 18.1 to 181 µM) | Cc1cc(Oc2ccc(C(F)(F)F)cc2Cl)ccc1OC(C)C(=O)C(C#N)c1cccc(Br)c1 (stereo not drawn) [compound 47] |  |  |  |  |  |  |  |  |  |  | 
3 |  |  |  |  |  |  |  |  |  |  | CC(Oc1cc(Cl)cc(Oc2ccc(C(F)(F)F)cc2Cl)c1)C(=O)C(C#N)c1ccc(Cl)c(Cl)c1 (stereo not drawn) [compound 212] | ≤ 1 µg/mL | ≤ 1 µg/mL | 1 to 10 µg/mL (≈ 1.78 to 17.8 µM) | ≤ 1 µg/mL | ≤ 1 µg/mL | ≤ 1 µg/mL | ≤ 1 µg/mL | ≤ 1 µg/mL | ≤ 1 µg/mL | ≤ 1 µg/mL | IC (Enterococcus from fish; [12]): ≤ 1 µg/mL; IC (Enterococcus from fish; [13]): ≤ 1 µg/mL; IC (Enterococcus from fish; [14]): ≤ 1 µg/mL; IC (Enterococcus from fish; [15]): ≤ 1 µg/mL; IC (Enterococcus from fish; [16]): ≤ 1 µg/mL; IC (Enterococcus from fish; [17]): ≤ 1 µg/mL; MIC (Enterococcus from fish): ≤ 1 µg/mL; IC (Enterococcus from fish; [18]): ≤ 1 µg/mL; IC (Enterococcus from fish; [19]): ≤ 1 µg/mL; IC (Enterococcus from fish; [20]): ≤ 1 µg/mL; MIC (Pasteurella from fish): 1 to 10 µg/mL (≈ 1.78 to 17.8 µM); IC (Pasteurella from fish; Pasteurella piscicida KP94-04): ≤10 (10-1 µg/ml); IC (Pasteurella from fish; Pasteurella piscicida KP94-05): ≤10 (10-1 µg/ml); IC (Pasteurella from fish; Pasteurella piscicida KP94-06): ≤10 (10-1 µg/ml); MIC [10]: 10 to 100 µg/mL (≈ 17.8 to 178 µM); MIC [11]: 10 to 100 µg/mL (≈ 17.8 to 178 µM)
4 |  |  |  |  |  |  |  |  |  |  | CC(Oc1cc(Cl)cc(Oc2ccc(C(F)(F)F)cc2Cl)c1)C(=O)C(C#N)c1cccc(Br)c1 (stereo not drawn) [compound 213] | 1 to 10 µg/mL (≈ 1.74 to 17.4 µM) | 1 to 10 µg/mL (≈ 1.74 to 17.4 µM) | 1 to 10 µg/mL (≈ 1.74 to 17.4 µM) | 1 to 10 µg/mL (≈ 1.74 to 17.4 µM) | ≤ 1 µg/mL | ≤ 1 µg/mL | ≤ 1 µg/mL | 1 to 10 µg/mL (≈ 1.74 to 17.4 µM) | 1 to 10 µg/mL (≈ 1.74 to 17.4 µM) | ≤ 1 µg/mL | IC (Enterococcus from fish; [12]): ≤ 1 µg/mL; IC (Enterococcus from fish; [13]): ≤ 1 µg/mL; IC (Enterococcus from fish; [14]): ≤ 1 µg/mL; IC (Enterococcus from fish; [15]): ≤ 1 µg/mL; IC (Enterococcus from fish; [16]): ≤ 1 µg/mL; IC (Enterococcus from fish; [17]): ≤ 1 µg/mL; MIC (Enterococcus from fish): ≤ 1 µg/mL; IC (Enterococcus from fish; [18]): ≤ 1 µg/mL; IC (Enterococcus from fish; [19]): ≤ 1 µg/mL; IC (Enterococcus from fish; [20]): ≤ 1 µg/mL; MIC (Pasteurella from fish): 1 to 10 µg/mL (≈ 1.74 to 17.4 µM); IC (Pasteurella from fish; Pasteurella piscicida KP94-04): ≤10 (10-1 µg/ml); IC (Pasteurella from fish; Pasteurella piscicida KP94-05): ≤10 (10-1 µg/ml); IC (Pasteurella from fish; Pasteurella piscicida KP94-06): ≤10 (10-1 µg/ml); MIC [10]: 10 to 100 µg/mL (≈ 17.4 to 174 µM); MIC [11]: 10 to 100 µg/mL (≈ 17.4 to 174 µM)
